# Source: ChEMBL document CHEMBL5154925, “Design and Optimization of Thienopyrimidine Derivatives as Potent and Selective PI3Kδ Inhibitors for the Treatment of B-Cell Malignancies” (J Med Chem, 2022)
# Experiments:
# [1] = biological target: Phosphatidylinositol 4,5-bisphosphate 3-kinase catalytic subunit alpha isoform (Homo sapiens, UniProt P42336); assay: Inhibition of PI3Kalpha (unknown origin) using PIP2 as substrate measured after 1 hr in presence of ATP by ADP-glo luminescence assay
# [2] = biological target: T1, Phosphatidylinositol 4,5-bisphosphate 3-kinase catalytic subunit delta isoform (Homo sapiens, UniProt O00329); assay: Inhibition of PI3Kdelta (unknown origin) using PIP2 as substrate measured after 1 hr in presence of ATP by ADP-glo luminescence assay
# T1 sequence (O00329 whole entry): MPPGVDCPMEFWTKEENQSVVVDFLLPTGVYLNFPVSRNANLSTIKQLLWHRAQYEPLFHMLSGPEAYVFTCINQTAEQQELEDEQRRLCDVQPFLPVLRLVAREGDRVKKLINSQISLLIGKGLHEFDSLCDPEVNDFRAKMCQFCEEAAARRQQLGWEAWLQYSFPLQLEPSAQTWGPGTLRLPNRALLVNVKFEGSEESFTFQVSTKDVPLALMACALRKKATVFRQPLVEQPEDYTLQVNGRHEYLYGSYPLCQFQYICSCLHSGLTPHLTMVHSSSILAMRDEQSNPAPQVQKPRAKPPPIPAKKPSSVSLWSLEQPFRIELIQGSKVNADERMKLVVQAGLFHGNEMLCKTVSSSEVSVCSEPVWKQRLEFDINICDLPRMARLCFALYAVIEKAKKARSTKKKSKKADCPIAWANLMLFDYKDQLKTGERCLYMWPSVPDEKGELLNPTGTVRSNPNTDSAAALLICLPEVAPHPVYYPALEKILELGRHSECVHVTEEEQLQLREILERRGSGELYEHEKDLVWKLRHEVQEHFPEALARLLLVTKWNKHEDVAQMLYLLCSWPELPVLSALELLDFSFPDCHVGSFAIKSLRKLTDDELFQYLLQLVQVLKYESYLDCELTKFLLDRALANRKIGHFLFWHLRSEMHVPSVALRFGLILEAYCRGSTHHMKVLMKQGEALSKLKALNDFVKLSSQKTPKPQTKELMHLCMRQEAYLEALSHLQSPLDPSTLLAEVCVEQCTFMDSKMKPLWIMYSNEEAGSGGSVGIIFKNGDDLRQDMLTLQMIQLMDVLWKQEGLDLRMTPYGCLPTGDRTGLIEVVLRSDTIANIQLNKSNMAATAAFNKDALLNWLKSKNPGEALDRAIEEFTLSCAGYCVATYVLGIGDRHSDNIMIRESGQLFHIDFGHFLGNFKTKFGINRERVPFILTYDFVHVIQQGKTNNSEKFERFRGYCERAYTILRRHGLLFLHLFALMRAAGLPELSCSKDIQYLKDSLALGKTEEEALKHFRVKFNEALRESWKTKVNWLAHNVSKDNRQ
# [3] = Microsomal stability in mouse liver microsomes assessed as intrinsic clearance; type: ADME, Microsome; conditions: read-out: CLH
# [4] = biological target: T2, Phosphatidylinositol 4,5-bisphosphate 3-kinase catalytic subunit beta isoform (Homo sapiens, UniProt P42338); assay: Inhibition of PI3Kbeta (unknown origin) using PIP2 as substrate measured after 1 hr in presence of ATP by ADP-glo luminescence assay
# [5] = biological target: Phosphatidylinositol 4,5-bisphosphate 3-kinase catalytic subunit gamma isoform (Homo sapiens, UniProt P48736); assay: Inhibition of PI3Kgamma (unknown origin) using PIP2 as substrate measured after 1 hr in presence of ATP by ADP-glo luminescence assay
# [6] = biological target: Serine/threonine-protein kinase mTOR (Homo sapiens, UniProt P42345); assay: Inhibition of mTOR (unknown origin)
# [7] = biological target: Phosphatidylinositol 4,5-bisphosphate 3-kinase catalytic subunit alpha isoform (Mus musculus, UniProt P42337); assay: Inhibition of PI3Kalpha in IGF-1 stimulated mouse C2C12 cells incubated for 10 mins by AlphaLISA assay; type: cell-based
# [8] = biological target: T2, Phosphatidylinositol 4,5-bisphosphate 3-kinase catalytic subunit beta isoform; assay: Inhibition of PI3Kbeta in LPA stimulated human PC-3 cells incubated for 10 mins by AlphaLISA assay; type: cell-based
# [9] = biological target: Phosphatidylinositol 4,5-bisphosphate 3-kinase catalytic subunit gamma isoform (Mus musculus, UniProt Q9JHG7); assay: Inhibition of PI3Kgamma in C5a stimulated mouse RAW264.7 cells incubated for 10 mins by AlphaLisa assay; type: cell-based
# DOHH-2 = assay: Antiproliferative activity against human DOHH-2 cells assessed as cell growth inhibition incubated for 96 hrs by cell titer glo assay; type: functional, cell-based; conditions: DOHH-2, 96 h
# [10] = Solubility of the compound in PBS; type: physicochemical
# [11] = Plasma protein binding in mouse; type: ADME, cell-free; conditions: read-out: PPB (converted)
# [12] = Microsomal stability in mouse liver microsomes assessed as half life; type: ADME, Microsome
# [13] = Solubility of the compound in FaSSIF; type: physicochemical
# SU-DHL-6 = assay: Antiproliferative activity against human SU-DHL-6 cells assessed as cell growth inhibition incubated for 96 hrs by cell titer glo assay; type: functional, cell-based; conditions: SU-DHL-6, 96 h
# Pfeiffer [14] = assay: Antiproliferative activity against human Pfeiffer cells assessed as cell growth inhibition incubated for 96 hrs by cell titer glo assay; type: functional, cell-based
# SUD4 = assay: Antiproliferative activity against human SU-DHL-4 cells assessed as cell growth inhibition incubated for 96 hrs by cell titer glo assay; type: functional, cell-based; conditions: SU-DHL-4, 96 h
# JeKo-1 = assay: Antiproliferative activity against human JeKo-1 cells assessed as cell growth inhibition incubated for 96 hrs by cell titer glo assay; type: functional, cell-based; conditions: JeKo-1, 96 h
# Z-138 = assay: Antiproliferative activity against human Z138 cells assessed as cell growth inhibition incubated for 96 hrs by cell titer glo assay; type: functional, cell-based; conditions: Z-138, 96 h
# Rec1 = assay: Antiproliferative activity against human REC1 cells assessed as cell growth inhibition incubated for 96 hrs by cell titer glo assay; type: functional, cell-based; conditions: Rec1, 96 h
# Pfeiffer [15] = assay: Induction of apoptosis in human Pfeiffer cells assessed as viable […] cells at 2 uM incubated for 48 hrs by annexin V-FITC staining based flow cytometry (reference value: 81.14 %); type: functional
# Pfeiffer [16] = assay: Induction of apoptosis in human Pfeiffer cells assessed as early apoptotic cells at 2 uM incubated for 48 hrs by annexin V-FITC staining based flow cytometry (reference value: 4.16 %); type: functional
# Pfeiffer [17] = assay: Induction of apoptosis in human Pfeiffer cells assessed as late apoptotic cells at 2 uM incubated for 48 hrs by annexin V-FITC staining based flow cytometry (reference value: 7.87 %); type: functional
# Pfeiffer [18] = assay: Induction of apoptosis in human Pfeiffer cells assessed as necrotic cells at 2 uM incubated for 48 hrs by annexin V-FITC staining based flow cytometry (reference value: 6.62 %); type: functional
# Pfeiffer [19] = assay: Induction of apoptosis in human Pfeiffer cells assessed as viable […] cells at 10 uM incubated for 48 hrs by annexin V-FITC staining based flow cytometry (reference value: 81.14 %); type: functional
# Pfeiffer [20] = assay: Induction of apoptosis in human Pfeiffer cells assessed as early apoptotic cells at 10 uM incubated for 48 hrs by annexin V-FITC staining based flow cytometry (reference value: 4.16 %); type: functional
# Pfeiffer [21] = assay: Induction of apoptosis in human Pfeiffer cells assessed as late apoptotic cells at 10 uM incubated for 48 hrs by annexin V-FITC staining based flow cytometry (reference value: 7.87 %); type: functional
# Pfeiffer [22] = assay: Induction of apoptosis in human Pfeiffer cells assessed as necrotic cells at 10 uM incubated for 48 hrs by annexin V-FITC staining based flow cytometry (reference value: 6.62 %); type: functional
# Pfeiffer [23] = assay: Antitumor activity against human Pfeiffer cells xenografted in nude mouse assessed as tumor growth inhibition at 30 mg/kg, po BID for 21 days and measured twice weekly; type: functional; conditions: 504 h, time 21 day, read-out: TGI
# [24] = Toxicity in nude mouse xenografted with human Pfeiffer cells assessed as effect on body weight at 30 mg/kg, po BID for 21 days and measured twice weekly; type: organism-based; conditions: in vivo, 504 h, time 21 day
# [25] = biological target: T1, Phosphatidylinositol 4,5-bisphosphate 3-kinase catalytic subunit delta isoform; assay: Inhibition of PI3Kdelta in IgM stimulated human Raji cells incubated for 10 mins by AlphaLISA assay; type: cell-based
# T2 sequence (P42338 whole entry, canonical isoform): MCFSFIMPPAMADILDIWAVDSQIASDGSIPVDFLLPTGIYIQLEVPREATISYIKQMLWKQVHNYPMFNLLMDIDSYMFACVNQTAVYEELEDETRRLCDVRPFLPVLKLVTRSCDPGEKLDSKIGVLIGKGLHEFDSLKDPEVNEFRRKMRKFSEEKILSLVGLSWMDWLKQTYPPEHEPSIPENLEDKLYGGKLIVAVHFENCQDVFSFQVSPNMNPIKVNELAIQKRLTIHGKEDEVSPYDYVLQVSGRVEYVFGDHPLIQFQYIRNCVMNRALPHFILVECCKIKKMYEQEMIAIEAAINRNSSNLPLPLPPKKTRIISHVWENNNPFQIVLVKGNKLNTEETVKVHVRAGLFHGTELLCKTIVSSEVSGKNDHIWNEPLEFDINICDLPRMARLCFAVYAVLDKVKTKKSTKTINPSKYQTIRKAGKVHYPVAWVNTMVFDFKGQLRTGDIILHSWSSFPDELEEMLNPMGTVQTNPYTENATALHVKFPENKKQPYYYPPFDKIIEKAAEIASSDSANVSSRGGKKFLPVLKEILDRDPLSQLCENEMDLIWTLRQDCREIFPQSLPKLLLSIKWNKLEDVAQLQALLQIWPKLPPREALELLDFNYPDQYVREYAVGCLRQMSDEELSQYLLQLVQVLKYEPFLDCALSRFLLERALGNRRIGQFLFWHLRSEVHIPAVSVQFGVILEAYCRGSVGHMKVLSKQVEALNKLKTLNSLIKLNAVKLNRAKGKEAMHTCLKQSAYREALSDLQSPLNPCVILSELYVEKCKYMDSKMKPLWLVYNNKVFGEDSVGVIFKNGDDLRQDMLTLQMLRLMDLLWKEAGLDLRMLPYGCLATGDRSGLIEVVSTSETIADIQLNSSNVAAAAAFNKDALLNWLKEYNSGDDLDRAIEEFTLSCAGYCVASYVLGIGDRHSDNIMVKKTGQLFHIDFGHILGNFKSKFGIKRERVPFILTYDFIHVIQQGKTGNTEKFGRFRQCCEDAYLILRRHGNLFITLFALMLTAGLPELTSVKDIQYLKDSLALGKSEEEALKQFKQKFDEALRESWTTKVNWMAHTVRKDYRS
# Sequence of Phosphatidylinositol 4,5-bisphosphate 3-kinase catalytic subunit alpha isoform (Homo sapiens, UniProt P42336) (P42336 whole entry, canonical isoform): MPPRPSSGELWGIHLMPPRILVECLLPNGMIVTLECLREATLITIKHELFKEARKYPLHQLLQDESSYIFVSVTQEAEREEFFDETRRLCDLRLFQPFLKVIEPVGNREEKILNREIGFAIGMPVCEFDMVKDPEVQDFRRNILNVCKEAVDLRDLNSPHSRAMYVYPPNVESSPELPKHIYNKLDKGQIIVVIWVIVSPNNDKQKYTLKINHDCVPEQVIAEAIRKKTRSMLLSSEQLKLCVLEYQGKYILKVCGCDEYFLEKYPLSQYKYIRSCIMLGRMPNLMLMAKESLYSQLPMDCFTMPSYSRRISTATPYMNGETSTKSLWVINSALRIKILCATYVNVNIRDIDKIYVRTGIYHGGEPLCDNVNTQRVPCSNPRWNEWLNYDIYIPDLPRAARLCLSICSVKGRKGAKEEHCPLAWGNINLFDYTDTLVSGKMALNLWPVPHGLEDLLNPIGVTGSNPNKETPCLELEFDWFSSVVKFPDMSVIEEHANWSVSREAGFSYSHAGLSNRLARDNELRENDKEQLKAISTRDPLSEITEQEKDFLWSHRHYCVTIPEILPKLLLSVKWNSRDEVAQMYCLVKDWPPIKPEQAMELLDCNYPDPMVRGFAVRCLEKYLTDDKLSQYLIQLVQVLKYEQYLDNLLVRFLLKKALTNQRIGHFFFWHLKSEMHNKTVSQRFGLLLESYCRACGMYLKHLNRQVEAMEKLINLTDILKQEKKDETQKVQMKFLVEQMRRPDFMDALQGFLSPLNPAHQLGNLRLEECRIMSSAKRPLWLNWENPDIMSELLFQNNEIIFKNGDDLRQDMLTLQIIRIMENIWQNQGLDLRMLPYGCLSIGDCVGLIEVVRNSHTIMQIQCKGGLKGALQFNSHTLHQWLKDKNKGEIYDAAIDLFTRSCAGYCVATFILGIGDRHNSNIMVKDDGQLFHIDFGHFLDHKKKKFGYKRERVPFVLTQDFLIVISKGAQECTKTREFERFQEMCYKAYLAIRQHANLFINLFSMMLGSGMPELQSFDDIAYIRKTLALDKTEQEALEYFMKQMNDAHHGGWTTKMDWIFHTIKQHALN
# Sequence of Phosphatidylinositol 4,5-bisphosphate 3-kinase catalytic subunit alpha isoform (Mus musculus, UniProt P42337) (P42337 whole entry, canonical isoform): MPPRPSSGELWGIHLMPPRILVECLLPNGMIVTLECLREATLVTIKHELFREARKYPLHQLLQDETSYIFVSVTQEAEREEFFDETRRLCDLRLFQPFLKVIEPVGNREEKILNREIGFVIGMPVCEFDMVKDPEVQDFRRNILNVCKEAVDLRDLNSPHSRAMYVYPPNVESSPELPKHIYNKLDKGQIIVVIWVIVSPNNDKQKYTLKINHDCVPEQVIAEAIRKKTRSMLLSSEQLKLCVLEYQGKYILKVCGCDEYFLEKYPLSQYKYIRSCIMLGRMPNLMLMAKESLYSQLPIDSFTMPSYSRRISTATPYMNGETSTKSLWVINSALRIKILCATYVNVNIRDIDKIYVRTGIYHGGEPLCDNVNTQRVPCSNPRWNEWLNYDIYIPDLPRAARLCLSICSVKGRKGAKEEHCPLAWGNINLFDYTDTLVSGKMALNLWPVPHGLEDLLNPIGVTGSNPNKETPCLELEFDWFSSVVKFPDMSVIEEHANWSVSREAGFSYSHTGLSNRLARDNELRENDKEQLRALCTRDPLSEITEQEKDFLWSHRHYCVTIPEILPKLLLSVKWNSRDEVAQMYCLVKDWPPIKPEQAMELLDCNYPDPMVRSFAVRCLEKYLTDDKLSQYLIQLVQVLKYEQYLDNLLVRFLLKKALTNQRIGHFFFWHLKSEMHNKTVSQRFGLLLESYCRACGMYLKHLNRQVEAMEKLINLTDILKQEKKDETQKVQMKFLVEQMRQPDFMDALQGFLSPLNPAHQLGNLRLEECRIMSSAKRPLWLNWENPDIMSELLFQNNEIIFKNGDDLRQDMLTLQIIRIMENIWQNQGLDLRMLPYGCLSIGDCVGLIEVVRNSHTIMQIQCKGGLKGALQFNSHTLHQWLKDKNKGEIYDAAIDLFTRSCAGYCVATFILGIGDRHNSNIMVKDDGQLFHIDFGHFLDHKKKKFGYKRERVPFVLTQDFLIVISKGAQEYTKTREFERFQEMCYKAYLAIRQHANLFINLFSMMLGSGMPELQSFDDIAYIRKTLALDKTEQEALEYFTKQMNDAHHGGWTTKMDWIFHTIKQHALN
# Sequence of Phosphatidylinositol 4,5-bisphosphate 3-kinase catalytic subunit gamma isoform (Homo sapiens, UniProt P48736) (P48736 whole entry, canonical isoform): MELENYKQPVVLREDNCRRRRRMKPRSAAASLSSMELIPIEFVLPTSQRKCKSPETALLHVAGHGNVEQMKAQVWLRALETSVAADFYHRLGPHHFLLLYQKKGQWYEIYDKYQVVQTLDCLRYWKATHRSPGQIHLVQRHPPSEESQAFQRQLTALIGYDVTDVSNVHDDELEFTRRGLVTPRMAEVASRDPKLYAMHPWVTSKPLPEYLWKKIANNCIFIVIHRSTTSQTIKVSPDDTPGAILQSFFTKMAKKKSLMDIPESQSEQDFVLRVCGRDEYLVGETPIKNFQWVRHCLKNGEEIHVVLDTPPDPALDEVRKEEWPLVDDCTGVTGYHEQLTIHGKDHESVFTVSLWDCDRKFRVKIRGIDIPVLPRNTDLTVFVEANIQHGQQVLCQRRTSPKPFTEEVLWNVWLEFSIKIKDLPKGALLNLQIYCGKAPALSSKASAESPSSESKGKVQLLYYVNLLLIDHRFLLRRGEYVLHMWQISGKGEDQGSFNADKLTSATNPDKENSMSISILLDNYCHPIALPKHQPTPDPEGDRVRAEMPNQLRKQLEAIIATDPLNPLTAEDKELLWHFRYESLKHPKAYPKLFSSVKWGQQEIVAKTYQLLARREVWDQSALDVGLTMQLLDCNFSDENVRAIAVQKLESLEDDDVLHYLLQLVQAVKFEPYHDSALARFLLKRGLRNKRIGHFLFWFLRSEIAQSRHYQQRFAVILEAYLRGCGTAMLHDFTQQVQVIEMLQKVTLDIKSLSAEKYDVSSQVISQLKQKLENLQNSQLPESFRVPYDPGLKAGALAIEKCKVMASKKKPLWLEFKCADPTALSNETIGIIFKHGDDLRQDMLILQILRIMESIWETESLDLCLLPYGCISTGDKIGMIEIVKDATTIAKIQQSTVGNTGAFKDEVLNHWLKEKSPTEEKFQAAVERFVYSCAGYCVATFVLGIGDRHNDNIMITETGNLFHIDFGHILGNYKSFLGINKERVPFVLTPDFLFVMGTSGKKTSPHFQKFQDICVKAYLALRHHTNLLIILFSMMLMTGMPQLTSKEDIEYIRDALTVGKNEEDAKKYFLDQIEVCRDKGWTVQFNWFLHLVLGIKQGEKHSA
smiles,measurement,setting,value
CCC(=O)N1CC[C@H](Nc2ncnc3sc(-c4ccc(OC)c(OC)c4)cc23)C1,IC50,[1],589 nM
same,IC50,[2],21 nM
COc1cc(-c2cc3c(O[C@H]4CCN(C(=O)C(C)C)C4)ncnc3s2)cnc1OC,IC50,[1],411 nM
same,IC50,[2],10 nM
CCC(=O)N1CC[C@H](Nc2ncnc3sc(-c4cnc(OC)c(C#N)c4)cc23)C1,IC50,[1],4030 nM
same,IC50,[2],60 nM
CCC(=O)N1CC[C@H](Nc2ncnc3sc(-c4ccc(C#N)nc4)cc23)C1,IC50,[1],> 1000 nM
same,IC50,[2],458 nM
CCC(=O)N1CC[C@H](Nc2ncnc3c2CN(c2cnc(OC)c(C(F)(F)F)c2)CC3)C1 [LENIOLISIB],CLint scaled,[3],355 mL/min/kg
same,IC50,[1],75.5 nM
same,IC50,[4],363 nM
same,IC50,[5],902 nM
same,IC50,[6],> 10000 nM
same,IC50,[7],19600 nM
same,IC50,[8],2680 nM
same,IC50,[9],4040 nM
same,IC50,DOHH-2,29200 nM
same,solubility,[10],57.9 µM
same,fraction unbound,[11],0.066
same,half-life,[12],15.4 min
same,solubility,[13],77.6 µM
same,IC50,SU-DHL-6,770 nM
same,IC50,Pfeiffer [14],3750 nM
same,IC50,SUD4,8250 nM
same,IC50,JeKo-1,31700 nM
same,IC50,Z-138,31200 nM
same,IC50,Rec1,1280 nM
same,Activity,Pfeiffer [15],78.31%
same,Activity,Pfeiffer [16],5.7%
same,Activity,Pfeiffer [17],11.23%
same,Activity,Pfeiffer [18],4.76%
same,Activity,Pfeiffer [19],75.9%
same,Activity,Pfeiffer [20],5.53%
same,Activity,Pfeiffer [21],12.88%
same,Activity,Pfeiffer [22],5.69%
same,inhibition in vivo at 30 mg/kg,Pfeiffer [23],53.8%
same,Activity,[24],10%
CCCC(=O)N1CC[C@H](Nc2ncnc3sc(-c4cnc(OC)c(OC)c4)cc23)C1,IC50,[1],363 nM
same,IC50,[2],12 nM
CCC(=O)N1CC[C@H](Oc2ncnc3sc(-c4cnc(OC)c(F)c4)cc23)C1,IC50,[1],7860 nM
same,IC50,[2],97.5 nM
CCC(=O)N1CC[C@H](Nc2ncnc3sc(-c4cnc(OC)nc4)cc23)C1,IC50,[1],2580 nM
same,IC50,[2],37 nM
COc1cc(-c2cc3c(N[C@H]4CCN(C(=O)C5CC5)C4)ncnc3s2)cnc1OC,IC50,[1],154 nM
same,IC50,[2],4.7 nM
CCC(=O)N1CC[C@H](Nc2ncnc3sc(-c4cnc(OC)c(C(F)(F)F)c4)cc23)C1,IC50,[1],2060 nM
same,IC50,[2],103 nM
COc1cc(-c2cc3c(N[C@H]4CCN(C(=O)C5CCC5)C4)ncnc3s2)cnc1OC,CLint scaled,[3],342 mL/min/kg
same,IC50,[1],172 nM
same,IC50,[2],2.2 nM
same,IC50,[4],1370 nM
same,IC50,[5],1990 nM
same,IC50,[6],> 10000 nM
same,IC50,[25],33.7 nM
same,IC50,[7],20800 nM
same,IC50,[8],4210 nM
same,IC50,[9],4780 nM
same,solubility,[10],5.67 µM
same,fraction unbound,[11],0.01
same,half-life,[12],15.9 min
same,solubility,[13],39.7 µM
CCC(=O)N1CC[C@H](Nc2ncnc3sc(-c4ccc(F)c(C#N)c4)cc23)C1,IC50,[1],> 10000 nM
same,IC50,[2],1010 nM
CCC(=O)N1CC[C@H](Nc2ncnc3sc(-c4cccc(S(C)(=O)=O)c4)cc23)C1,IC50,[1],3070 nM
same,IC50,[2],128 nM
COc1cc(-c2cc3c(N[C@H]4CCN(C(=O)C5CCCCC5)C4)ncnc3s2)cnc1OC,IC50,[1],718 nM
same,IC50,[2],30 nM
CCC(=O)N1CC[C@H](Oc2ncnc3sc(-c4cnc(OC)c(C#N)c4)cc23)C1,IC50,[1],7330 nM
same,IC50,[2],156 nM
